Test results as given in ChEMBL document CHEMBL3301464, “MMV Malaria Box anti-babesial screening”.

Columns and labels:
[1] = (§1) MMV: Anti-babesial activity assay. Parasite pRBCs at 1% parasitemia were cultivated in 100 ul with 96-well plates at 2.5% and 5% hematocrits. The parasites were cultivated in triplicate for 4 days without replacement of the medium for each concentration of the compound.; type: functional, Babesia bigemina
[2] = as §1; type: functional, Babesia equi
[3] = as §1; type: functional, Babesia caballi
[4] = as §1; type: functional, Babesia bovis

SMILES	IC50 [1] [µM]	IC50 [2] [µM]	IC50 [3] [µM]	IC50 [4] [µM]
CC(C)CCNCC(O)Cn1c2ccccc2c2ccccc21 (stereo not given)	0.76	0.84	0.38	0.081
CN(N=O)C1=C(NC2CCCCC2)C(=O)c2ccccc2C1=O	4.13	0.76	0.41	0.59
FC(F)(F)c1cccc(Nc2nc(-c3ccccc3)nc3ncccc23)c1	4.48	16	12	6.8
COc1ccc(C(=O)NC(c2ccc(Cl)cc2Cl)c2cc(Cl)c3cccnc3c2O)cc1 (stereo not given)	3.05	1.39	4.68	0.86
CCOC(=O)c1cnc2ccc(Cl)cc2c1NCCCN(C)C	5.51	3.86	0.11	0.42
CCCCCCOC(=O)C1=C(C)NC(=O)NC1c1ccccc1F (stereo not given)	14.8	15.2	4.9	> 25
Cc1cc(Nc2cccc(F)c2)nc(NCc2ccccc2)n1	0.093	5.06	0.1	10
O=C(Nc1cccc(-c2nc3ccccc3[nH]2)c1)c1cccc(NC(=O)c2ccco2)c1	6.8	3.7	5.21	3.32
c1ccc(Cn2c(N=Nc3c(Nc4ccccc4)ccc4ccccc34)nc3ccccc32)cc1	3.3	0.76	2.84	2.93
CC(C)(C)c1ccc2c(c1)CN(Cc1ccc(Cl)cc1)CO2	> 25	12.8	5.9	16.5
COc1ccc(C(=O)C2CC2c2ccc(Cl)cc2)cc1 (stereo not given)	6.72	16.1	14.6	5.97
Cn1c(C(=O)c2cccc3ccccc23)nc2ccccc21	12	10	0.81	3.73
CCCCCCn1c(=N)n(CC(O)COc2cccc(C)c2)c2ccccc21 (stereo not given)	2.95	3.73	15.9	0.083
CCOc1ccc(/C=C/c2nc(=O)c3ccccc3o2)cc1	3.03	12.5	19.4	1
O=C(NC1CCN(Cc2ccccc2)CC1)c1cc(-c2ccncc2)nc2ccc(Cl)cc12	7.3	0.39	0.076	3.99
CC(=O)c1sc(NC(=O)Nc2ccc(C)cc2C)nc1C	10	7.26	5.3	11.1
O=C(Nc1nc(-c2ccccn2)cs1)c1ccccc1Br	1	5.5	1	4.6
COc1ccc(Nc2nc(N/N=C/c3ccc(O)cc3)nc(Nc3ccc([N+](=O)[O-])cc3)n2)cc1	0.05	15.9	5.09	0.081
COc1ccc(C)c2sc(N(Cc3cccnc3)C(=O)c3ccc(C#N)cc3)nc12	0.55	5.69	15.2	0.24
CCn1nc(-c2ccc(C(=O)OC)cc2)nc2c(=O)n(C)c(=O)nc1-2	7.89	5.06	0.09	12.8
O=C(NC1CCN(Cc2ccccc2)CC1)c1cc(-c2cccnc2)nc2ccc(Cl)cc12	13.9	0.48	0.071	> 25
CSC1=NC(=Nc2c(C)cccc2C)C2(CCC(C(C)(C)C)CC2)N1c1ccc(Cl)cc1 (stereo not given)	17.1	11.5	15	18.4
O=C(CCl)NCCOc1ccc(Cl)cc1Cl	13.1	16.5	12	16.5
COc1ccc(NC(=O)C2c3ccccc3C(=O)N(CC(C)C)C2c2cccs2)cc1 (stereo not given)	17.3	8.02	9.09	12.6
Cc1cc(Nc2ccc(OCc3ccccc3)cc2)nc2cc(O)ccc12	3.45	6.31	4.91	0.17
